{"source": "patent US20110124740A1", "about": "“NOVEL DIARYL HEPATONOID-BASED COMPOUNDS AND USE THEREOF” (priority 2008, published 2011)", "key": {"[1]": {"test_system": "CEF (chicken embryo fibroblasts)"}, "[2]": {"test_system": "avian influenza virus KBNP-0028 (KCTC 10866BP)", "type": "cell-based, A/chicken/Korea/SNU0028/2000(H9N2)"}}, "note": "Read-outs that look alike come from different tables or passages of the source.", "data": [{"smiles": "O=C(CCc1ccc(O)c(O)c1)C[C@H](O)CCc1ccc(O)c(O)c1", "note": "[12B-AJ-15A, (5R)-1,7-bis(3,4-dihydroxyphenyl)-5-hydroxyheptane-3-one]", "values": [{"measurement": "Cytotoxicity (in words)", "setting": "[1]", "value": "no cytotoxicity"}, {"measurement": "Cytotoxicity (MTT assay value)", "setting": "[1]; 6.25 μg/mL", "value": 0.457}, {"measurement": "Cytotoxicity (MTT assay value)", "setting": "[1]; 12.5 μg/mL", "value": 0.369}, {"measurement": "Cytotoxicity (MTT assay value)", "setting": "[1]; 25 μg/mL", "value": 0.320}, {"measurement": "Cytotoxicity (MTT assay value)", "setting": "[1]; 50 μg/mL", "value": 0.369}, {"measurement": "Cytotoxicity (MTT assay value)", "setting": "[1]; 100 μg/mL", "value": 0.423}, {"measurement": "Cytotoxicity (MTT assay value)", "setting": "[1]; 200 μg/mL", "value": 0.538}, {"measurement": "Antiviral activity (in words)", "setting": "[2]", "value": "had antiviral activity"}, {"measurement": "Number of wells wherein hemagglutination occurs (among 6 wells)", "setting": "[2]; 12.5 μg/mL", "value": 3}, {"measurement": "Number of wells wherein hemagglutination occurs (among 6 wells)", "setting": "[2]; 25 μg/mL", "value": 3}, {"measurement": "Number of wells wherein hemagglutination occurs (among 6 wells)", "setting": "[2]; 50 μg/mL", "value": 3}, {"measurement": "Number of wells wherein hemagglutination occurs (among 6 wells)", "setting": "[2]; 100 μg/mL", "value": 3}]}]}
